Results reported in paper PMC5319746, “Phospholipid binding to the FAK catalytic domain impacts function” (PLoS ONE, 2017).
Where two headings read alike, the source gives them in different places.

Tests used:
[1] = target: T1, wild type avian FAK catalytic domain (GST fusion protein) (Gallus gallus, UniProt Q00944); assay: Fluorescence anisotropy binding of BODIPY-labeled C6 phosphoinositides to wild type catalytic domain; conditions: for Binding to wild type catalytic domain compared with the PI control (ANOVA, Tukey's posttest): anisotropy at 100 and 200 μM protein
T1 construct: the catalytic domain of FAK was expressed as a GST fusion protein; made in house; host or cells: Escherichia coli BL21 (Codon Plus)
T1 sequence (Q00944 422-680 limits assumed): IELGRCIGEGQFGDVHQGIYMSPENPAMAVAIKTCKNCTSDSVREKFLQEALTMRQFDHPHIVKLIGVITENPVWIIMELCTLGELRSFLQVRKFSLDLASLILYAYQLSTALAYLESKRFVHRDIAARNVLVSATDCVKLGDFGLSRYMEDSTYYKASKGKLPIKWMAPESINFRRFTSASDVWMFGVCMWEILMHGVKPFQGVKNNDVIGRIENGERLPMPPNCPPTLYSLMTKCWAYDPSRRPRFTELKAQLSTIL
Description: (§1) For anisotropy experiments purified GST fusion proteins were incubated with BODIPY (dipyrromethene boron difluoride)-labeled phosphoinosotides with C6-acyl chains (Echelon). Increasing concentrations of purified protein were added to 12.5 nM fluorescent phosphoinositide in buffer containing 20 mM HEPES [pH7.5], 150 mM NaCl, and 5 mM β-mercaptoethanol. Anisotropy measurements were taken at 37°C using a Flourlog spectroflourometer equipped with Glan-Thompson polarizers with FluorEssence software (HORIBA Jobin Yvon). Specific binding of the catalytic domain was determined by subtraction of binding of GST alone. Binding curves and dissociation constants were determined using the Prism 5.0 statistical analysis software (GraphPad).
(§2) PI(4,5)P2 binding was further validated using fluorescence anisotropy. GST and the GST catalytic domain of FAK were incubated with BODIPY-TMR labeled short acyl chain (C6) PI or PI(4,5)P2 and anisotropy measured.
To test the specificity of the lipid interaction, the binding of wild type and RK5A GST-fusion proteins to phosphatidylinositol, PI(4)P, PI(4,5)P2, and PI(3,4,5)P3 was analyzed. Purified GST catalytic domain fusion proteins were titrated into a solution of BODIPY-labeled phospholipids with C6-acyl chains, and anisotropy was measured. Phosphatidylinositol with C6-acyl chains and purified GST were used as controls. Differences in anisotropy of each BODIPY-labeled phospholipid at 100 and 200 μM of each protein were compared by ANOVA and a Tukey’s posttest (S1 Table). […] To calculate binding affinities, anisotropy was plotted against protein concentration and binding to GST was subtracted as background binding. […] To determine if the observed interaction with the short acyl chain PI(4,5)P2 required the basic residues implicated in binding to PI(4,5)P2-containing vesicles, the RK5A mutant was analyzed.

[2] = target: T2, FAK catalytic domain RK5A mutant (GST fusion protein) (Gallus gallus, UniProt Q00944, K515A/K621A/K627A/R508A/R514A); assay: Fluorescence anisotropy binding of BODIPY-labeled C6 phosphoinositides to RK5A mutant; parameters: species or system avian
T2 construct: This GST mutant catalytic domain fusion protein was found in the supernatant; made in house; host or cells: Escherichia coli BL21 (Codon Plus)
T2 sequence (Q00944 422-680 R508A/R514A/K515A/K621A/K627A limits assumed): as the sequence (Q00944 422-680 limits assumed) above, with R87A, R93A, K94A, K200A, K206A counted along it
Description: as §1, §2
To test the specificity of the lipid interaction, the binding of wild type and RK5A GST-fusion proteins to phosphatidylinositol, PI(4)P, PI(4,5)P2, and PI(3,4,5)P3 was analyzed. Purified GST catalytic domain fusion proteins were titrated into a solution of BODIPY-labeled phospholipids with C6-acyl chains, and anisotropy was measured. Phosphatidylinositol with C6-acyl chains and purified GST were used as controls. […]

[3] = target: T3, FAK catalytic domain R508A/R514A/K515A mutant (GST fusion protein) (Gallus gallus, UniProt Q00944, K515A/R508A/R514A); conditions: BODIPY-labeled C6 lipid, Fig 7, read-out: Kd for binding (specific binding, GST subtracted)
T3 construct: mutations were engineered into the GST-catalytic domain construct; made in house; host or cells: Escherichia coli BL21 (Codon Plus)
T3 sequence (Q00944 422-680 R508A/R514A/K515A limits assumed): as the sequence (Q00944 422-680 limits assumed) above, with R87A, R93A, K94A counted along it
Description: (§3) Short acyl chain (C6) BODIPY labeled PI(4,5)P2, was chosen to assess the ability of these mutants to bind phospholipids using fluorescence anisotropy.

[4] = target: T4, FAK catalytic domain K621A/K627A mutant (GST fusion protein) (Gallus gallus, UniProt Q00944, K621A/K627A); conditions: BODIPY-labeled C6 lipid, Fig 7, read-out: Kd for binding (specific binding, GST subtracted)
T4 construct: mutations were engineered into the GST-catalytic domain construct; made in house; host or cells: Escherichia coli BL21 (Codon Plus)
T4 sequence (Q00944 422-680 K621A/K627A limits assumed): as the sequence (Q00944 422-680 limits assumed) above, with K200A, K206A counted along it
Description: as §3

[5] = target: T5, FAK catalytic domain R508A/K621A mutant (GST fusion protein) (Gallus gallus, UniProt Q00944, K621A/R508A); conditions: BODIPY-labeled C6 lipid, Fig 7, read-out: Kd for binding (specific binding, GST subtracted)
T5 construct: mutations were engineered into the GST-catalytic domain construct; made in house; host or cells: Escherichia coli BL21 (Codon Plus)
T5 sequence (Q00944 422-680 R508A/K621A limits assumed): as the sequence (Q00944 422-680 limits assumed) above, with R87A, K200A counted along it
Description: as §3

[6] = wild type catalytic domain, lipid specificity experiment, Fig 8B, read-out: Kd of the wild type catalytic domain for each phosphatidylinositol phosphate

Binding to wild type catalytic domain compared with the PI control (ANOVA, Tukey's posttest) [1] | Kd [1, 6] [µM] | Kd ([1]; wild type catalytic domain, BODIPY-labeled C6 lipid 12.5 nM, 37°C, Fig 7 experiment, read-out: Kd for binding (specific binding, GST subtracted)) [µM] | Kd ([2]; BODIPY-labeled C6 lipid, Fig 7 experiment, read-out: Kd for binding (specific binding, GST subtracted)) [µM] | Specific binding (in words) ([2]; anisotropy, GST subtracted) | Kd [3] [µM] | Kd [4] [µM] | Kd [5] [µM] | Specific binding (in words) ([1]; wild type catalytic domain, anisotropy, GST subtracted) | Substance
significant | 16 ± 9.2 | – | – | – | – | – | – | – | PI(3,4,5)P3
significant | 12.9 ± 2.3 | 15.7 ± 6.5 | > 200 | no specific binding | 16.4 ± 3.2 | 20.8 ± 2.7 | > 200 | – | Phosphatidylinositol-4,5-bisphosphate [PI(4,5)P2]
– | > 200 | – | – | – | – | – | – | did not specifically bind | phosphatidylinositol [PI]

Substance | Binding to wild type catalytic domain compared with the PI control (ANOVA, Tukey's posttest) [1] | Kd [1, 6] [µM] | Kd ([1]; wild type catalytic domain, BODIPY-labeled C6 lipid 12.5 nM, 37°C, Fig 7 experiment, read-out: Kd for binding (specific binding, GST subtracted)) [µM] | Kd ([2]; BODIPY-labeled C6 lipid, Fig 7 experiment, read-out: Kd for binding (specific binding, GST subtracted)) [µM] | Specific binding (in words) ([2]; anisotropy, GST subtracted) | Kd [3] [µM] | Kd [4] [µM] | Kd [5] [µM] | Specific binding (in words) ([1]; wild type catalytic domain, anisotropy, GST subtracted)
PI(4)P | approached, but did not reach significance | 11.7 ± 13.7 | – | – | – | – | – | – | –
